Row | melting point [°C] | Structure (SMILES)
1 | 111 to 115 | CCCCCCOc1cc(O)c(-c2nc(-c3ccc(C)cc3C)nc(-c3ccc(C)cc3C)n2)cc1C(C)(C)c1ccccc1
2 | 36 to 38 | CC(C)(C)OC(=O)N1Cc2cscc2C1
3 | 218 to 220 | Fc1nc(NCc2cccnc2)c2nc[nH]c2n1
4 | 105 to 107 | Brc1ccc(C2NCCS2)cc1 (stereo not drawn)
5 | 173 to 174 | COc1cc(C=CNC(C)=O)ccc1OCC1CO1 (stereo not drawn)
6 | 290 to 291 | CS(=O)c1ccc(-n2cnc3ccc(-c4nnc(N)o4)cc32)cc1 (stereo not drawn)
7 | 97 to 99 | Cc1ccc(Oc2ccc(-c3ccccc3)cc2)cc1
8 | 38 to 39 | Cc1ccc(I)c(C(O)(C(F)(F)F)C(F)(F)F)c1
9 | 170 to 171 | CS(=O)(=O)c1ccc(-c2cnn(CCc3ccccc3)c(=O)c2-c2ccc(F)cc2)cc1
10 | 98 to 100 | CCCCc1nc(Cl)c(COc2ccccn2)n1Cc1ccc(-c2ccccc2-c2nnn[nH]2)cc1
11 | 95 to 97 | CC=C1CCC(C(=O)OCCOC(=O)C2=C(C)C(=CC)CC2)=C1C
12 | 202 to 204 | N#Cc1cnn2c(-c3cc(Cl)ccc3Cl)ccnc12
13 | 271 to 273 | CC(c1oc2ccccc2c(=O)c1-c1cccc(F)c1)n1nc(-c2cc(O)cc(F)c2)c2c(N)ncnc21 (stereo not drawn)
14 | 86 | Cc1cc(SCCSCC(=O)O)ccc1O
15 | 177 to 178 | COC(=O)c1ccc(-c2nc(-c3ccc(C(F)(F)F)cc3)no2)cc1
16 | 60 to 63 | Cc1cn(N)c2ccccc12
17 | 119 to 120 | NC(=O)COCCN1CCN(C(c2ccccc2)c2ccccc2)CC1
18 | 239 | O=[N+]([O-])c1ccc(CSc2ncnc3nc[nH]c23)cc1
19 | 49 to 50 | Clc1ccc2c(c1)CNC2
20 | 210 to 211 | Cc1c(NC(=O)c2cc3c(s2)CCCC3)cccc1-c1cc(N)c(=O)n(C)c1
21 | 77 to 79 | Cc1nc2ccccc2n1Cc1ccc(C(=O)NC2CCN(C(=O)OC(C)(C)C)CC2)cc1
22 | 224 to 226 | CCOC(=O)c1cn(C2CC2)c2c(OC(F)F)c(F)c(F)cc2c1=O
23 | 123 to 124 | O=C1O[C@@H](CO)CN1c1ccc(Br)cn1
24 | 227 to 229 | CC(=O)Nc1cccc2c(Br)ccc(C)c12
25 | 206 | N#Cc1c(N)nc2ccccc2c1NCc1ccccc1
26 | 160 to 162 | COC(=O)C1=C(C)OC(OC)(OC)CC1NC(C)=O (stereo not drawn)

Row | melting point [°C] | Structure (SMILES)
27 | 100 to 101 | COc1ccc(C(=O)c2c(F)cccc2F)cc1OC
28 | 194 to 195 | CCOC(=O)C1=C(C)NC(C)=C(C(=O)OCCN2C(=O)c3ccccc3C2=O)C1c1cccc([N+](=O)[O-])c1 (stereo not drawn)
29 | 155 to 158 | CCC1c2cc(OC)c(OC)cc2C(C=Cc2ccc(N)cc2)=NNC1C (stereo not drawn)
30 | 84 to 86 | COC(=O)Cc1ccc2occ(-c3ccc(Br)cc3)c2c1
31 | 55 to 57 | N#Cc1ccc(-c2ccoc2)cc1
32 | 125 to 127 | CCC(=CC(CNC(=O)c1nc[nH]c1C)=NO)C(C)[N+](=O)[O-] (stereo not drawn)
33 | 245 to 246 | COc1cc2c(Cl)nc3c4ccccc4nc(Cl)c3c2cc1OC
34 | 190 to 192 | CC1(C(=O)O)CCc2cc(O)ccc2O1 (stereo not drawn)
35 | 115 | C=CCOc1cc(Br)ccc1C(C)=NO
36 | 206 to 208 | OCCc1cnc(Nc2n[nH]c3ccc(-c4ncccc4Cl)cc23)s1
37 | 176 to 177 | CON(C)C(=O)c1ccc(-c2cc(C(C)(C)C)c(O)c(C(C)(C)C)c2)cc1
38 | 143 | COC(=O)CC1CC(c2ccc(C(=N)NC(=O)OC(C)(C)C)cn2)=NO1 (stereo not drawn)
39 | 97 to 98 | Cc1cccc(C)c1NCCCNCC(O)COc1ccc(O)cc1 (stereo not drawn)
40 | 192 | CN(C(=O)OCc1ccccc1)c1ccc([N+](=O)[O-])cc1O
41 | 131 to 133 | O=C(O)COc1ccc(SCc2cc(-c3ccc(Cl)cc3)on2)c2c1CCCO2
42 | 77 to 78 | O=C(OCC1OC(OC(=O)c2ccccc2)C(F)C1OC(=O)c1ccccc1)c1ccccc1 (stereo not drawn)
43 | 148 to 150 | CN(C)c1cccc2c1C1=NCCN1c1c(-c3noc(C4CC4)n3)ncn1-2
44 | 71 | Cc1cc(=O)c2ccccc2o1
45 | 123 to 125 | NS(=O)(=O)c1ccc(F)cc1
46 | 185 | Oc1ccccc1-c1cccnc1
47 | 103 | O=S1(=O)c2cccc3cccc(c23)N1CCCN1CCN(c2cccc(F)c2)CC1
48 | 203 to 205 | COc1ccc2c(C)n[nH]c(=O)c2c1
49 | 70 | COc1cccc(C#Cc2ccccc2)c1
50 | 50 to 60 | CC(C=CC(=O)NCCCN1CCCCC1)=CCc1ccc(Cl)c(Cl)c1
51 | 162 | CCCC1=C(C(=O)OCC)C(c2cc(Cl)ccc2Cl)c2c[nH]nc2N1 (stereo not drawn)
52 | 194 to 195 | O=C(Nc1ccc(CC2CCN(S(=O)(=O)c3ccccc3)CC2)cc1)C(F)(F)F

Row | melting point [°C] | Structure (SMILES)
53 | 116 to 119 | O=C(NCc1cccnc1)c1ccc2n1Cc1ccccc1N(C(=O)c1ccc3c(c1)Cc1ccccc1-3)C2
54 | 179 | Nc1ccc2c(c1)S(=O)(=O)NCCO2
55 | 241 to 242 | Nc1ccn([C@H]2C=C[C@@H](O)C2)c(=O)n1 (racemic)
56 | 178 to 180 | COc1cc2c(cc1-c1c(C)nn(C)c1C)-c1c(-c3cccs3)c3c(n1CC2)C(=O)N(C(C)C)CCN(C(C)=O)C3
57 | 237 to 239 | Nc1nc(N)c2ncn(C3COC(CO)O3)c2n1 (single isomer, unassigned; (-))
58 | 128 to 132 | CC1(C)C(C=C(Cl)Cl)C1(C#N)C(=O)O (stereo not drawn)
59 | 272 to 274 | N#Cc1ccc(-c2ccc3nncn3n2)cc1
60 | 196 | COc1cc2c(=O)cc3c4ccccc4sn3c2c(OC)c1OC
61 | 179 to 184 | COC(=O)C(CCC(C(=O)OC)c1cc(OC)c(OC)c(OC)c1)c1cc(OC)c(OC)c(OC)c1 (stereo not drawn)
62 | 95 to 97 | CCOC(Cc1ccc(OCc2nc(C(C)(C)C)oc2C)c(C)c1)C(=O)O (stereo not drawn)
63 | 168 to 169 | CCCCNC(=O)NS(=O)(=O)c1ccn(C)n1
64 | 211 to 215 | CNC(=O)C1(Nc2nc(Nc3cc4c(cc3OC)CCN(CCOC)CC4)ncc2Cl)CC1
65 | 238 to 242 | COc1ccc(NC(=O)c2c(Cl)cccc2Cl)c2nccc(Cl)c12
66 | 93 to 98 | CCc1cn(C2CC(I)C(COC(c3ccccc3)(c3ccccc3)c3ccccc3)O2)c(=O)[nH]c1=O (stereo not drawn)
67 | 217 to 219 | CCOC(=O)C1(C)C(=O)Nc2cc(NC(=O)c3ccncc3)c([N+](=O)[O-])cc21 (stereo not drawn)
68 | 165 to 167 | CCOC(=O)C(=O)c1cc(OC)c(O)c([N+](=O)[O-])c1
69 | 58 to 62 | CC(NC(=S)NCC(COC(=O)C(C)(C)C)Cc1ccccc1)c1ccc(NS(C)(=O)=O)cc1 (stereo not drawn)
70 | 188 | CC(C)(C)OC(=O)NCCCCC(=O)Nc1cccc(C(=O)O)c1
71 | 78 to 80 | CCOC(=O)c1ccc(OCCCCCCCCCCCCCCCCCCCCOc2ccc(Cl)cc2)cc1
72 | 237 to 239 | O=C1Cn2c(cc3ccccc32)C(=O)N1CCCCN1CCN(c2ncccn2)CC1
73 | 168 to 169 | O=S(=O)(c1ccc(Cl)cc1)C1(c2cccnc2Cl)CCCCCC1
74 | 240 | CC(=O)Nc1n[nH]c2cc(Cl)ccc12
75 | 161 | O=CC(=C(c1ccc(F)cc1)c1ccc(F)cc1)n1cnnn1
76 | 134 to 136 | N#CNC(=NCCN1CCC(C(=O)c2ccc(F)cc2)CC1)Oc1ccccc1
77 | 190 to 191 | Cc1ccc(CSc2nnc(-c3ccc4c(c3)CCO4)o2)cc1
78 | 250 | NS(=O)(=O)c1nnc(NC(=O)c2ccccc2)s1

Row | melting point [°C] | Structure (SMILES)
79 | 242 | CSc1nn(C(=S)Oc2ccccc2)c(=O)n1C
80 | 233 | CC1(C)CCc2c(-c3ccco3)nc3sc4c(NCc5ccccn5)ncnc4c3c2C1
81 | 77 to 79 | CC(Cc1c[nH]c2ccccc12)(NC(=O)OC1C2CC3CC(C2)CC1C3)C(=O)NCCC1=CCCCC1 (stereo not drawn)
82 | 98 to 99 | COc1cc(C(=O)NN2CCN(C3CCCC3)CC2)ccc1Nc1ncc2c(n1)N(C1CCCCC1)CC(F)(F)C(=O)N2C
83 | 86 | CN(C)C(=O)NCCNCC(O)COc1ccc(OCCOCC2CC2)cc1 (stereo not drawn)
84 | 162 to 164 | O=[N+]([O-])c1ccc(CCC2CCN(c3cc(Cl)nnc3Cl)CC2)cc1
85 | 77 to 78 | CCCCCCCCCCCCCCCCCNC(=O)O[C@@H]1CCO[C@H]1CO (relative stereo)
86 | 124 to 125 | CCCCCOc1cc(C=Cc2nc3c(s2)NCCCC3)ccc1OC
87 | 152 to 154 | CS(=O)(=O)Nc1ccc(CCC(=O)O)cc1
88 | 139 to 140 | CNc1cnc2ccc(Cl)cc2c1-c1ccccc1
89 | 84 to 89 | O=C(O)CCCCCCc1ccc2ccccc2c1[N+](=O)[O-]
90 | 96 to 99 | COC(=O)C1=Cc2cc(Br)ccc2N(CC2(C)OCCO2)CC1
91 | 183 | Nc1cc(Cl)cc(NCCO)c1[N+](=O)[O-]
92 | 226 to 227 | CC1(C)Oc2ccc(C#N)cc2[C@@H](N(C(N)=O)c2ccccc2)[C@@H]1O (relative stereo)
93 | 166 to 168 | COc1cc(Cl)cc(C)c1Nc1nc2c(Cl)ccc(C(=C(C)C)C(C)C)c2n1C
94 | 98 to 100 | CC(=O)S[C@@H]1CCNC1=S
95 | 182 to 190 | CC(C)Oc1ccc(-n2c(C(=O)O)c(C(=O)O)c3cc(Oc4cccc(Cl)c4)ccc32)cc1
96 | 302 | NS(=O)(=O)c1cccc(NC(=O)c2cnn3c(C(F)(F)F)cc(-c4ccc(Cl)c(Cl)c4)nc23)c1
97 | 74 to 75.5 | CC1Cc2cc3c(cc2C1=O)C(C)(C)CCC3(C)C (stereo not drawn)
98 | 195 to 198 | N#Cc1ccc2nc(C(=O)NCc3cccc(OCCSc4nc[nH]n4)c3)[nH]c(=O)c2c1
99 | 165 to 168 | O=C1C2CCCCC2C(=O)N1c1ccncc1 (stereo not drawn)
100 | 185 to 187 | COc1cc2c(cc1OC)CCN=C2
101 | 113 to 115 | CCOC(=O)c1cnc2c(c(C)nc3cc(C)nn32)c1NC(C)CC (stereo not drawn)
102 | 75.4 | OCc1nccn1CCc1ccccc1
103 | 145 to 147 | Clc1ccc(-c2onc3c(CBr)cc(Cl)cc23)cc1
